Consider 20 compounds from ChEMBL document CHEMBL3124804, “Discovery of a cyclopentylamine as an orally active dual NK1 receptor antagonist-serotonin reuptake transporter inhibitor” (Bioorg Med Chem Lett, 2014).

Activity calls are given as the source filed them. The calls are words filed in the database; no cut-off is given here.

Series [1] can be described thus: Plasma concentration in gerbil at 30 mg/kg, po. It counts as ADME, organism-based. Set-up: dose 30 mg/kg, route oral. The note with it: gerbillinae, in vivo.
Series [2] concerns the target Sodium-dependent serotonin transporter (Homo sapiens, UniProt P31645). The series is described as follows: Inhibition of human SERT.
Series [3] deals with Gerbillinae. The series is described as follows: Neurotoxicity in gerbil assessed as increase in spontaneous locomotor activity at 30 mg/kg, po relative to vehicle-treated control. It counts as toxicity, organism-based. Also on record: dose 30 mg/kg, route oral. The note with it: in vivo.
Series [4] deals with Gerbillinae. Briefly: Antidepressant activity in gerbil assessed as reduction of immobility time at 30 mg/kg, po administered 30 mins prior to testing measured over 6 mins by forced swimming test relative to vehicle-treated control. Also on record: dose 30 mg/kg. It counts as functional, organism-based.
In series [5] the test system is Gerbillinae. The series is described as follows: Antidepressant activity in gerbil assessed as reduction of immobility time at 3 to 10 mg/kg, po administered 30 mins prior to testing measured over 6 mins by forced swimming test relative to vehicle-treated control. It counts as functional, organism-based.
Series [6] is described as follows: Drug uptake in gerbil brain at 30 mg/kg, po. The format is ADME, organism-based. Also on record: dose 30 mg/kg, route oral. The note with it: gerbillinae, in vivo, read-out: Drug uptake.
The target in series [7] is Substance-P receptor (Homo sapiens, UniProt P25103). The series is described as follows: Antagonist activity at human NK1 receptor.
Sequence of Substance-P receptor (P25103 whole entry): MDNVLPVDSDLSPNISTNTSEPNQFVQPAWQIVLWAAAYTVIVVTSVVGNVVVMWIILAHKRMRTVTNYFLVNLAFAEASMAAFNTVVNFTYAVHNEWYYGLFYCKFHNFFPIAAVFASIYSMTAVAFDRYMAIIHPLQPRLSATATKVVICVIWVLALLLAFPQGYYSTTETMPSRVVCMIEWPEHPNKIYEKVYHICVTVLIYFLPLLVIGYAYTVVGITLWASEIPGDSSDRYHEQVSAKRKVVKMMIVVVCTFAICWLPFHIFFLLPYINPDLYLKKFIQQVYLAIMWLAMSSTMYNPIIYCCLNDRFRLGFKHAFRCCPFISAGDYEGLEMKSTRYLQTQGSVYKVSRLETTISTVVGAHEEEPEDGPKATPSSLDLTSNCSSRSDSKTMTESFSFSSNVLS

Sequence of Sodium-dependent serotonin transporter (P31645 whole entry): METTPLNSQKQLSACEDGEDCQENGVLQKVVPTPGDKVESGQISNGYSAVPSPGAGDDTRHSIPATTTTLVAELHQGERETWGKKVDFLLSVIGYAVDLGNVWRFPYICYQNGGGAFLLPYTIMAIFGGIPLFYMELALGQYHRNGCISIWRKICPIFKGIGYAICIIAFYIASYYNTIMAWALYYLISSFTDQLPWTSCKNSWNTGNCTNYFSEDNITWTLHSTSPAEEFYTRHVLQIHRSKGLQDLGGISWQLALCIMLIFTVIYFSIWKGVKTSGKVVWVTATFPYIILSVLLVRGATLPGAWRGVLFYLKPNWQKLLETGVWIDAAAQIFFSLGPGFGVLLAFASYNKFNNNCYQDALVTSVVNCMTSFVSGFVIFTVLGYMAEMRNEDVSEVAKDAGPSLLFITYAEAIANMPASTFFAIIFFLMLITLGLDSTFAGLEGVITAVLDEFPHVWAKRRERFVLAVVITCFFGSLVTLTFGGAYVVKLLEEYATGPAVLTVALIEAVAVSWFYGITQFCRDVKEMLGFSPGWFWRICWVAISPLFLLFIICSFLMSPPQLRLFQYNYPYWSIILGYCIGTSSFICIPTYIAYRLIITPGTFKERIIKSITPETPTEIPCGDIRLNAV

The IC50 is the midpoint of a concentration-inhibition curve. Lower therefore signals greater potency in that assay. Regarding `N[C@H]1CC[C@@](COCc2cc(C(F)(F)F)cc(C(F)(F)F)c2)(c2ccccc2)C1`, the concentration in series [1] turned out to be 0.3 µM; in series [6] it was 7.4 µM. The IC50 in series [2] was 4.7 nM; in series [7] it was 7.5 nM. Besides, the Activity result in series [3] was “Non-toxic”. Besides, the outcome in series [4] was Active. Besides, the outcome in series [5] was inactive.
As to `N[C@@H]1CC[C@](COCc2cc(C(F)(F)F)cc(C(F)(F)F)c2)(c2ccccc2)C1`, the results for the IC50 in series [2] and in series [7] were 210 nM and 31 nM, respectively.
Consider `N[C@H]1CC[C@](COCc2cc(C(F)(F)F)cc(C(F)(F)F)c2)(c2ccccc2)C1`, for which the 50% inhibitory concentration (IC50) in series [2] is 350 nM; in series [7], 19 nM.
As to `N[C@@H]1CC[C@@](COCc2cc(C(F)(F)F)cc(C(F)(F)F)c2)(c2ccccc2)C1`, the 50% inhibitory concentration (IC50) was found to be 130 nM in series [2] and 11 nM in series [7].
Take `FC(F)(F)c1cc(COCC2(c3ccccc3)CCC(N3CCOCC3)CC2)cc(C(F)(F)F)c1` (mixture of isomers): the concentration for half-maximal inhibition (IC50) in series [2] was over 1000 nM; in series [7], 350 nM.
On to `CN1CCN(C2CCC(COCc3cc(C(F)(F)F)cc(C(F)(F)F)c3)(c3ccccc3)CC2)CC1` (mixture of isomers), for which the IC50 in series [2] was 520 nM; in series [7], 120 nM.
As for `CCNC1CCC(COCc2cc(C(F)(F)F)cc(C(F)(F)F)c2)(c2ccccc2)CC1` (mixture of isomers), the IC50 in series [2] is 150 nM; in series [7], 14 nM.
As for `FC(F)(F)c1cc(COCC2(c3ccccc3)CCC(NC3CC3)CC2)cc(C(F)(F)F)c1` (mixture of isomers), the figures for the IC50 in series [2] and in series [7] were 680 nM and 74 nM, respectively.
Taken in the same sequence, the figures for `CN(C)C1CCC(COCc2cc(C(F)(F)F)cc(C(F)(F)F)c2)(c2ccccc2)CC1` (mixture of isomers) were 250 nM and 48 nM.
Take `CCN(CC)C1CCC(COCc2cc(C(F)(F)F)cc(C(F)(F)F)c2)(c2ccccc2)CC1` (mixture of isomers): the IC50 in series [2] is 280 nM; in series [7] it was 38 nM.
Take `FC(F)(F)c1cc(COCC2(c3ccccc3)CCC(N3CCCC3)CC2)cc(C(F)(F)F)c1` (mixture of isomers): the results for the IC50 in series [2] and in series [7] were over 1000 nM and 120 nM, respectively.
As to `FC(F)(F)c1cc(COCC2(c3ccccc3)CCC(N3CCCCC3)CC2)cc(C(F)(F)F)c1` (mixture of isomers), the IC50 in series [2] came to 970 nM; in series [7] it was 93 nM.
Take `CN(C)C1CCC(COCc2cc(C(F)(F)F)cc(C(F)(F)F)c2)(c2ccccc2)C1` (mixture of isomers): the results for the half-inhibitory concentration (IC50) in series [2] and in series [7] were 57 nM and 8 nM, respectively.
For `CC(C)N(C(C)C)C1CCC(COCc2cc(C(F)(F)F)cc(C(F)(F)F)c2)(c2ccccc2)C1` (mixture of isomers) the same measures were over 1000 nM and 470 nM.
`FC(F)(F)c1cc(COCC2(c3ccccc3)CCC(NC3CC3)C2)cc(C(F)(F)F)c1` (mixture of isomers): the values for the half-inhibitory concentration (IC50) in series [2] and in series [7] were 530 nM and 16 nM, respectively.
For `COCCN(C)C1CCC(COCc2cc(C(F)(F)F)cc(C(F)(F)F)c2)(c2ccccc2)C1` (mixture of isomers) the same measures were over 1000 nM and 20 nM.
Regarding `FC(F)(F)c1cc(COCC2(c3ccccc3)CCC(N3CCCC3)C2)cc(C(F)(F)F)c1` (mixture of isomers), the concentration for half-maximal inhibition (IC50) in series [2] is over 1000 nM; in series [7], 14 nM.
For `FC(F)(F)c1cc(COCC2(c3ccccc3)CCC(N3CCCCC3)C2)cc(C(F)(F)F)c1` (mixture of isomers) the same measures were over 1000 nM and 4.7 nM.
Turning to `FC(F)(F)c1cc(COCC2(c3ccccc3)CCC(N3CCOCC3)C2)cc(C(F)(F)F)c1` (mixture of isomers), the results for the IC50 in series [2] and in series [7] were over 1000 nM and 45 nM, respectively.
Take `CNC1CCC(COCc2cc(C(F)(F)F)cc(C(F)(F)F)c2)(c2ccccc2)CC1` (mixture of isomers): the half-inhibitory concentration (IC50) came to 190 nM in series [2] and 16 nM in series [7].
